Test system: HUVEC/MSC spheroids viability
Test: Human HUVEC/MSC cell line growth inhibition [KRAS2];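 on viability, T/C: percent of DMSO vehicle control luminescence so 100% = untreated viability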
Settings: for IC50: curve of first compound; for viability, T/C: stronger effect = lower value
Method in brief: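 Spheroids of human HUVEC plus MSCs, without tumor cells, were treated with single agents and combinations. Each drug was tested in half-log steps down from near its clinical Cmax, or from 10 microM when Cmax was unknown. HUVEC and hMSC were used at passage </=5.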

[1] = second compound 0.0316 µM, first compound 0.0316 µM
[2] = second compound 0.0316 µM, first compound 0.1 µM
[3] = second compound 0.0316 µM, first compound 0.316 µM
[4] = second compound 0.0316 µM, first compound 1 µM
[5] = second compound 0.0316 µM, first compound 3.16 µM
[6] = second compound 0.0316 µM, first compound 10 µM
[7] = second compound 0.1 µM, first compound 0.0316 µM
[8] = second compound 0.1 µM, first compound 0.1 µM
[9] = second compound 0.1 µM, first compound 0.316 µM
[10] = second compound 0.1 µM, first compound 1 µM
[11] = second compound 0.1 µM, first compound 3.16 µM
[12] = second compound 0.1 µM, first compound 10 µM
[13] = second compound 0.316 µM, first compound 0.0316 µM
[14] = second compound 0.316 µM, first compound 0.1 µM
[15] = second compound 0.316 µM, first compound 0.316 µM
[16] = second compound 0.316 µM, first compound 1 µM
[17] = second compound 0.316 µM, first compound 3.16 µM
[18] = second compound 0.316 µM, first compound 10 µM
[19] = second compound 1 µM, first compound 0.0316 µM
[20] = second compound 1 µM, first compound 0.1 µM
[21] = second compound 1 µM, first compound 0.316 µM
[22] = second compound 1 µM, first compound 1 µM
[23] = second compound 1 µM, first compound 3.16 µM
[24] = second compound 1 µM, first compound 10 µM
[25] = second compound 3.16 µM, first compound 0.0316 µM
[26] = second compound 3.16 µM, first compound 0.1 µM
[27] = second compound 3.16 µM, first compound 0.316 µM
[28] = second compound 3.16 µM, first compound 1 µM
[29] = second compound 3.16 µM, first compound 3.16 µM
[30] = second compound 3.16 µM, first compound 10 µM
[31] = second compound 10 µM, first compound 0.0316 µM
[32] = second compound 10 µM, first compound 0.1 µM
[33] = second compound 10 µM, first compound 0.316 µM
[34] = second compound 10 µM, first compound 1 µM
[35] = second compound 10 µM, first compound 3.16 µM
[36] = second compound 10 µM, first compound 10 µM

CC1OCC2(CCN(c3cnc(Sc4ccnc(N)c4Cl)c(N)n3)CC2)C1N (stereo unspecified) + CNCc1ccccc1-c1csc(C(C)Nc2nc(C)nc3cc(OC)c(OC)cc23)c1
IC50 (second compound 0.0316 µM): > 10 µM | IC50 (second compound 0.1 µM): 6.91 µM | IC50 (second compound 0.316 µM): 6.2 µM | IC50 (second compound 1 µM): 6.91 µM | IC50 (second compound 3.16 µM): 4.95 µM | IC50 (second compound 10 µM): < 0.0316 µM | viability, T/C [1]: 90.2% | viability, T/C [2]: 104% | viability, T/C [3]: 86.8% | viability, T/C [4]: 80.1% | viability, T/C [5]: 83.1% | viability, T/C [6]: 51.9% | viability, T/C [7]: 94.5% | viability, T/C [8]: 108% | viability, T/C [9]: 90.4% | viability, T/C [10]: 74.2% | viability, T/C [11]: 68% | viability, T/C [12]: 42.5% | viability, T/C [13]: 90.2% | viability, T/C [14]: 81.9% | viability, T/C [15]: 78.2% | viability, T/C [16]: 69.9% | viability, T/C [17]: 70.3% | viability, T/C [18]: 38.5% | viability, T/C [19]: 74.6% | viability, T/C [20]: 104% | viability, T/C [21]: 79.1% | viability, T/C [22]: 67.4% | viability, T/C [23]: 68.8% | viability, T/C [24]: 42.5% | viability, T/C [25]: 90.8% | viability, T/C [26]: 98.7% | viability, T/C [27]: 82% | viability, T/C [28]: 89.2% | viability, T/C [29]: 78.9% | viability, T/C [30]: 4.77% | viability, T/C [31]: 0.35% | viability, T/C [32]: 0.39% | viability, T/C [33]: 0.53% | viability, T/C [34]: 0.42% | viability, T/C [35]: 0.4% | viability, T/C [36]: 0.25%

CC(C)n1nc(-c2ccc3oc(N)nc3c2)c2c(N)ncnc21 + C=CC(=O)N1CCN(c2nc(OCC3CCCN3C)nc3c2CCN(c2cccc4cccc(C)c24)C3)CC1CC#N
IC50 (second compound 0.00949 µM): 0.00633 µM | IC50 (second compound 0.03 µM): 0.0068 µM | IC50 (second compound 0.0949 µM): 0.00434 µM | IC50 (second compound 0.3 µM): 0.00335 µM | IC50 (second compound 0.949 µM): 0.000512 µM | IC50 (second compound 3 µM): 0.0222 µM | viability, T/C (second compound 0.00949 µM, first compound 0.000316 µM): 80.6% | viability, T/C (second compound 0.00949 µM, first compound 0.001 µM): 64.1% | viability, T/C (second compound 0.00949 µM, first compound 0.00316 µM): 56.1% | viability, T/C (second compound 0.00949 µM, first compound 0.01 µM): 43.1% | viability, T/C (second compound 0.00949 µM, first compound 0.0316 µM): 48.3% | viability, T/C (second compound 0.00949 µM, first compound 0.1 µM): 39.8% | viability, T/C (second compound 0.03 µM, first compound 0.000316 µM): 69.5% | viability, T/C (second compound 0.03 µM, first compound 0.001 µM): 65.7% | viability, T/C (second compound 0.03 µM, first compound 0.00316 µM): 44.1% | viability, T/C (second compound 0.03 µM, first compound 0.01 µM): 54.1% | viability, T/C (second compound 0.03 µM, first compound 0.0316 µM): 46.8% | viability, T/C (second compound 0.03 µM, first compound 0.1 µM): 42% | viability, T/C (second compound 0.0949 µM, first compound 0.000316 µM): 80.1% | viability, T/C (second compound 0.0949 µM, first compound 0.001 µM): 64.7% | viability, T/C (second compound 0.0949 µM, first compound 0.00316 µM): 48.4% | viability, T/C (second compound 0.0949 µM, first compound 0.01 µM): 49% | viability, T/C (second compound 0.0949 µM, first compound 0.0316 µM): 41.1% | viability, T/C (second compound 0.0949 µM, first compound 0.1 µM): 40.8% | viability, T/C (second compound 0.3 µM, first compound 0.000316 µM): 59.7% | viability, T/C (second compound 0.3 µM, first compound 0.001 µM): 67.6% | viability, T/C (second compound 0.3 µM, first compound 0.00316 µM): 50.5% | viability, T/C (second compound 0.3 µM, first compound 0.01 µM): 43.5% | viability, T/C (second compound 0.3 µM, first compound 0.0316 µM): 40.5% | viability, T/C (second compound 0.3 µM, first compound 0.1 µM): 36% | viability, T/C (second compound 0.949 µM, first compound 0.000316 µM): 57.5% | viability, T/C (second compound 0.949 µM, first compound 0.001 µM): 47.5% | viability, T/C (second compound 0.949 µM, first compound 0.00316 µM): 42.7% | viability, T/C (second compound 0.949 µM, first compound 0.01 µM): 34.5% | viability, T/C (second compound 0.949 µM, first compound 0.0316 µM): 44.6% | viability, T/C (second compound 0.949 µM, first compound 0.1 µM): 44.3% | viability, T/C (second compound 3 µM, first compound 0.000316 µM): 62.5% | viability, T/C (second compound 3 µM, first compound 0.001 µM): 66.8% | viability, T/C (second compound 3 µM, first compound 0.00316 µM): 54.1% | viability, T/C (second compound 3 µM, first compound 0.01 µM): 58.6% | viability, T/C (second compound 3 µM, first compound 0.0316 µM): 45.3% | viability, T/C (second compound 3 µM, first compound 0.1 µM): 40.7%

COc1cc2nccc(Oc3ccc(NC(=O)C4(C(=O)Nc5ccc(F)cc5)CC4)cc3)c2cc1OC + CNCc1ccccc1-c1csc(C(C)Nc2nc(C)nc3cc(OC)c(OC)cc23)c1
IC50 (second compound 0.0316 µM): 5.9 µM | IC50 (second compound 0.1 µM): 5.67 µM | IC50 (second compound 0.316 µM): 6.1 µM | IC50 (second compound 1 µM): 4.98 µM | IC50 (second compound 3.16 µM): 1.84 µM | IC50 (second compound 10 µM): < 0.0316 µM | viability, T/C [1]: 87.7% | viability, T/C [2]: 86.5% | viability, T/C [3]: 78.2% | viability, T/C [4]: 65.8% | viability, T/C [5]: 84.2% | viability, T/C [6]: 24.3% | viability, T/C [7]: 67% | viability, T/C [8]: 88.8% | viability, T/C [9]: 87% | viability, T/C [10]: 81% | viability, T/C [11]: 78.2% | viability, T/C [12]: 22.7% | viability, T/C [13]: 86.6% | viability, T/C [14]: 90.9% | viability, T/C [15]: 72% | viability, T/C [16]: 71.2% | viability, T/C [17]: 81.4% | viability, T/C [18]: 27.1% | viability, T/C [19]: 69.6% | viability, T/C [20]: 67.3% | viability, T/C [21]: 66.6% | viability, T/C [22]: 97.6% | viability, T/C [23]: 99.7% | viability, T/C [24]: 3.5% | viability, T/C [25]: 96.7% | viability, T/C [26]: 104% | viability, T/C [27]: 108% | viability, T/C [28]: 115% | viability, T/C [29]: 0.31% | viability, T/C [30]: 0.22% | viability, T/C [31]: 0.36% | viability, T/C [32]: 0.41% | viability, T/C [33]: 0.99% | viability, T/C [34]: 0.46% | viability, T/C [35]: 0.43% | viability, T/C [36]: 0.25%
